Experimental data reported in publication PMC6835155, “Lessons from LIMK1 enzymology and their impact on inhibitor design” (Biochemical Journal, 2019).
Where a name gives a salt, the structure may show the parent alone. Read-outs that look alike come from different tables or passages of the source.

Legend:
[1] = molecular target: T1, LIMK1KD (Homo sapiens, UniProt P53667); experiment: Differential (dynamic) scanning fluorimetry (DSF) assay, LIMK1KD; type: binding; conditions: 2 µM LIMK1KD, compound 10 µM, single shot; for ΔTm at 10 µM: read-out: TM Shift LIMK1 (K)
T1 construct: His6 (N, cleaved yes); made in house; host or cells: baculovirus; Sf9 for virus, TriEx insect cells for expression

[2] = molecular target: T2, LIMK2KD (Homo sapiens, UniProt P53671); experiment: Differential (dynamic) scanning fluorimetry (DSF) assay, LIMK2KD; type: binding
T2 construct: The cDNA coding for LIMK2 residues 330 to 632 was PCR amplified; His6 (N, cleaved yes); made in house; host or cells: baculovirus; Sf9 for virus, TriEx insect cells for expression

[3] = LIMK2KD, compound 10 µM, single shot
[4] = LIMK2KD, compound 10 µM, single shot, read-out: TM Shift LIMK2 (K)
[5] = LIMK2KD, compound 10 µM, single shot, 10 µM
[6] = read-out: TM Shift LIMK2 (K), LIMK2KD, compound 10 µM, single shot

T2 sequence (P53671 330-632): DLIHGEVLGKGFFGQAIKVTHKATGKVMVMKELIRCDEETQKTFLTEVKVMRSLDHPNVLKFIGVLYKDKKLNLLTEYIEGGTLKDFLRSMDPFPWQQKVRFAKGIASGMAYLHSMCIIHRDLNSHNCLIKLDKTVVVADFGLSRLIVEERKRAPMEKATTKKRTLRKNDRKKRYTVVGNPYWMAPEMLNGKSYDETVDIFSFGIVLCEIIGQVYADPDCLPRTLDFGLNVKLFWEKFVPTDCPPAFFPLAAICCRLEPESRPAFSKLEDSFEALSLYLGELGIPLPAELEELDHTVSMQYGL
T1 sequence (P53667 330-637): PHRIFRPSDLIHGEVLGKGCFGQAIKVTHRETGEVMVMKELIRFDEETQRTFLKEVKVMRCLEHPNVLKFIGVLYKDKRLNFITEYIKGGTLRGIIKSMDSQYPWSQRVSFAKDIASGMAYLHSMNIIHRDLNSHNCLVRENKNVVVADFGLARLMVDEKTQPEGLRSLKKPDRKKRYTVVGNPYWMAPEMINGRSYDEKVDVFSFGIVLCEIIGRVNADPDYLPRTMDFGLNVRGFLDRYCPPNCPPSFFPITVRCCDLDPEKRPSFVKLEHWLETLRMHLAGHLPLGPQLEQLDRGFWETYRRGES

| TM Shift LIMK1 (K) [1] [K] | TM Shift LIMK2 (K) [2, 3] [K] | ΔTm at 10 µM [1] [°C] | ΔTm at 10 µM [2, 4] [°C] | SMILES | further results |
| --- | --- | --- | --- | --- | --- |
| 1.3 | -0.8 | – | – | COc1ccc2c(Oc3ccc(NC(=O)c4c(C)n(CC(C)(C)O)n(-c5ccccc5)c4=O)nc3)ccnc2c1 [AMG-458] | – |
| – | – | 2.4 | 0.7 | C=CC(=O)N1CCC[C@@H](n2nc(-c3ccc(Oc4ccccc4)cc3)c3c(N)ncnc32)C1 [Ibrutinib (PCI-32765), Ibrutinib] | – |
| 1.2 | 0.4 | – | – | O=C1NCCc2[nH]c(-c3ccncc3)cc21 [PHA-767491] | – |
| 2.0 | – | – | – | Cc1cnc(Nc2ccc(OCCN3CCCC3)cc2)nc1Nc1cccc(S(=O)(=O)NC(C)(C)C)c1 [TG101348 (SAR302503)] | TM Shift LIMK2 (K) [2, 5]: 0.7 K |
| 0.2 | -0.9 | – | – | COc1ccc(Cl)cc1NC(=O)Nc1cc(C)nc2ccccc12 [PQ 401] | – |
| – | – | 5.5 | 3 | COc1cc(Nc2ncc(F)c(Nc3ccc4c(n3)NC(=O)C(C)(C)O4)n2)cc(OC)c1OC [Tamatinib] | – |
| – | – | -0.6 | 1.9 | O=C(/C=C/c1ccc(O)c(O)c1)c1ccc(O)cc1O [Butein] | – |
| – | – | 7 | – | Cc1nc(Nc2ncc(C(=O)Nc3c(C)cccc3Cl)s2)cc(N2CCN(CCO)CC2)n1 [Dasatinib] | ΔTm at 10 µM [2, 6]: 1.7 °C |
| 1.3 | 3.2 | – | – | N#Cc1c(Oc2ccc(F)c(NC(=O)Cc3cccc(C(F)(F)F)c3)c2)ccc2nc(NC(=O)C3CC3)sc12 [TAK-632] | – |
| – | – | 0.5 | 1.4 | CC1=C(C(=O)Nc2cc3cn[nH]c3cc2F)C(c2ccc(C(F)(F)F)cc2)CC(=O)N1 (stereo not shown) [GSK429286A] | – |
| – | – | 1 | 2.1 | Oc1c2ccccc2c2c3c(cccc13)N=N2 [SP600125] | – |
| – | – | 0.1 | -0.9 | CO[C@H]1C[C@@H]2CC[C@@H](C)[C@@](O)(O2)C(=O)C(=O)N2CCCC[C@H]2C(=O)O[C@H]([C@H](C)C[C@@H]2CC[C@@H](OCCO)[C@H](OC)C2)CC(=O)[C@H](C)/C=C(\C)[C@@H](O)[C@@H](OC)C(=O)[C@H](C)C[C@H](C)/C=C/C=C/C=C/1C [Everolimus (RAD001), Everolimus] | – |
| -0.5 | – | – | – | CN(c1ncccc1CNc1nc(Nc2ccc3c(c2)CC(=O)N3)ncc1C(F)(F)F)S(C)(=O)=O [PF-562271] | TM Shift LIMK2 (K) [2, 5]: -0.7 K |
| – | – | 0.5 | -2.1 | Cc1csc(-c2nnc(Nc3ccc(Oc4ncccc4-c4ccnc(N)n4)cc3)c3ccccc23)c1 [AMG-900] | – |
| 0.0 | – | – | – | CCN1CCN(c2ccc(Nc3cc(N(C)C(=O)Nc4c(Cl)c(OC)cc(OC)c4Cl)ncn3)cc2)CC1 [NVP-BGJ398] | TM Shift LIMK1 (K) ([1]; listed as BGJ398 (NVP-BGJ398)): 0.7 K; TM Shift LIMK2 (K) [2, 5]: -0.5 K; TM Shift LIMK2 (K) ([2]; LIMK2KD, compound 10 µM, single shot, listed as BGJ398 (NVP-BGJ398), 10 µM): 0.5 K |
| 0.4 | 2.0 | – | – | C=CC(=O)Nc1ccc2ncnc(Nc3cccc(Br)c3)c2c1 [PD168393] | – |
| – | – | 0.3 | -0.1 | COc1ccc(-c2nc(N3CCOCC3)c3sc(CN(C)c4ncc(C(=O)NO)cn4)cc3n2)cn1 [CUDC-907] | – |
| – | – | 1.5 | 6 | CCCS(=O)(=O)Nc1ccc(F)c(C(=O)c2c[nH]c3ncc(-c4ccc(Cl)cc4)cc23)c1F [Vemurafenib (PLX4032, RG7204), Vemurafenib] | – |
| 0.5 | -1.2 | – | – | Cc1ccccc1CN1C(=O)C2=C(CCN(Cc3ccccc3)C2)N2CCN=C12 [TIC10] | – |
| – | – | 0.5 | 1.1 | CNc1nc(-c2ccc3c(N)n[nH]c3c2)cc(N2C[C@@H](C(=O)NC3CCCCC3)CC[C@H]2C)n1 [GSK2334470] | – |
| 0.6 | – | – | – | Nc1cc(C(F)(F)F)c(-c2cc(N3CCOCC3)nc(N3CCOCC3)n2)cn1 [Buparlisib] | TM Shift LIMK1 (K) ([1]; listed as BKM120 (NVP-BKM120, Buparlisib)): -1.9 K; TM Shift LIMK2 (K) [2, 5]: 0.0 K; TM Shift LIMK2 (K) ([2]; LIMK2KD, compound 10 µM, single shot, listed as BKM120 (NVP-BKM120, Buparlisib), 10 µM): 0.7 K |
| – | – | 5 | 4.7 | O=C(NCCCNc1nc(Nc2cccc(NC(=O)N3CCCC3)c2)ncc1I)c1cccs1 [BX-795] | – |
| – | – | 1.8 | – | CCN(CC)CCNC(=O)c1c(C)[nH]c(/C=C2\C(=O)Nc3ccc(F)cc32)c1C [Sunitinib] | TM Shift LIMK2 (K) [2, 5]: -0.1 K |
| 0.6 | 2.8 | – | – | O=C(NOCC(O)CO)c1cc(Br)c(F)c(F)c1Nc1ccc(I)cc1F (stereo not shown) [PD318088] | – |
| -1.0 | 0.9 | – | – | NC(=O)c1cccc(-c2cc(Nc3ccc(OC(F)(F)F)cc3)ncn2)c1 [GNF-2] | – |

| TM Shift LIMK1 (K) [1] [K] | TM Shift LIMK2 (K) [2, 3] [K] | ΔTm at 10 µM [1] [°C] | ΔTm at 10 µM [2, 4] [°C] | SMILES | further results |
| --- | --- | --- | --- | --- | --- |
| 0.7 | 0.7 | – | – | N#C/C(=C(/N)Sc1ccc(N)cc1)c1ccccc1C(F)(F)F [SL-327] | – |
| 0.1 | 0.0 | – | – | Cc1cc(C(C)Nc2ccccc2)c2nc(N3CCOCC3)cc(=O)n2c1 (stereo not shown) [TGX-221] | – |
| – | – | 1.3 | -0.1 | CCn1cc(-c2ccnc3[nH]c(-c4cccc(CN(C)C)c4)cc23)c(-c2ccc(NC(=O)N(C)C)cc2)n1 [GSK1070916] | – |
| – | – | -1 | 0.3 | Oc1cccc(-c2nc(N3CCOCC3)c3oc4ncccc4c3n2)c1 [PI-103] | – |
| – | – | 0.8 | 2.1 | O=C(NC[C@H](O)CO)c1ccncc1Nc1ccc(I)cc1F [Pimasertib (AS-703026), Pimasertib] | – |
| – | – | 1 | 0.5 | COc1cc(Nc2ncc(F)c(Nc3ccc4c(n3)N(COP(=O)(O)O)C(=O)C(C)(C)O4)n2)cc(OC)c1OC [Fostamatinib (R788), Fostamatinib] | – |
| – | – | 3.4 | 0.1 | COc1cc(N2CCC(N3CCN(C)CC3)CC2)ccc1Nc1ncc(Cl)c(Nc2ccccc2P(C)(C)=O)n1 [AP26113] | – |
| -0.6 | 2.4 | – | – | COc1c(C)c(C(=O)c2ccc(N)c(C(=O)[O-])c2)n2ccccc12.[Na+] [SSR128129E] | – |
| 0.2 | – | – | – | CCn1c(=O)c(-c2cc[nH]n2)cc2c(C)nc(N)nc21 [Voxtalisib] | TM Shift LIMK2 (K) [2, 5]: 0.4 K |
| – | – | -1.5 | -0.6 | C[C@H](Nc1ncnc2nc[nH]c12)c1cc2cccc(Cl)c2c(=O)n1-c1ccccc1 [IPI-145 (INK1197)] | – |
| -0.8 | -0.3 | – | – | COc1cccc(-c2cc(=O)c3ccccc3o2)c1N [PD98059] | – |
| – | – | 3.7 | 0.3 | CCS(=O)(=O)c1cccc(-c2cc(C(=O)NC3CCN(C)CC3)c(C)c3[nH]c4ncc(C)cc4c23)c1 [TAK-901] | – |
| – | – | 0.1 | 0.6 | Cn1cnc2c(F)c(Nc3ccc(Br)cc3Cl)c(C(=O)NOCCO)cc21 [Selumetinib (AZD6244), Selumetinib] | – |
| 1.4 | 0.8 | – | – | O=C(NCc1cccc(O)c1)Nc1nc(-c2ccncc2)cs1 [RKI-1447] | – |
| – | – | -0.3 | 0.4 | C[C@H](NC(=O)/C(C#N)=C/c1cccc(Br)n1)c1ccccc1 [WP1066] | – |
| – | – | -0.3 | 1.8 | COc1cc(Nc2ncc3c(n2)-c2ccc(Cl)cc2C(c2c(F)cccc2OC)=NC3)ccc1C(=O)O [Alisertib (MLN8237), Alisertib] | – |
| – | – | 0.5 | 0.6 | C[C@@H]1CN(CC(=O)Nc2ccc3c(c2)Cc2cccc(-c4cc(=O)cc(N5CCOCC5)o4)c2S3)C[C@H](C)O1 [KU-60019] | – |
| – | – | 2.7 | 1.2 | CCS(=O)(=O)Nc1ccc2c(c1)/C(=C(/Nc1ccc(CN3CCCCC3)cc1)c1ccccc1)C(=O)N2 [Hesperadin] | – |
| 0.0 | 1.0 | – | – | Cc1nc(NC(=O)N2CCC[C@H]2C(N)=O)sc1-c1csc(C(C)(C)C)n1 [A66] | – |
| 0.2 | -1.4 | – | – | CC(C)N(CCC(=O)c1ccc2ccccc2c1)Cc1ccccc1.Cl [ZM 39923 HCl] | – |
| 0.5 | 1.8 | – | – | COc1ccc2c(c1)c(C1=C(c3c[nH]c4ccccc34)C(=O)NC1=O)cn2CCCN(C)C [Go 6983] | – |
| -1.0 | -1.2 | – | – | CCN1/C(=C/C(C)=O)Sc2ccc(OC)cc21 [TG003] | – |
| 1.1 | 3.3 | – | – | CNC(=O)c1ccccc1Nc1nc(Nc2ccc(N3CCOCC3)cc2OC)ncc1Cl [TAE226 (NVP-TAE226)] | – |
| 0.2 | 2.2 | – | – | O=C1Nc2cc(Br)ccc2/C1=C1/Nc2ccccc2/C1=N\O [BIO] | – |

| SMILES | TM Shift LIMK1 (K) [1] [K] | TM Shift LIMK2 (K) [2, 3] [K] | ΔTm at 10 µM [1] [°C] | ΔTm at 10 µM [2, 4] [°C] | further results |
| --- | --- | --- | --- | --- | --- |
| Cc1ccc(C(=O)Nc2ccc(CN3CCN(C)CC3)c(C(F)(F)F)c2)cc1C#Cc1cnc2cccnn12 [Ponatinib (AP24534), Ponatinib] | – | – | 5 | 4.6 | – |
| CN[C@@H]1C[C@H]2O[C@@](C)([C@@H]1OC)n1c3ccccc3c3c4c(c5c6ccccc6n2c5c31)C(=O)N[C@H]4O [UCN-01] | 1.2 | 0.7 | – | – | – |
| C[S+]([O-])c1ccc(-c2nc(-c3ccncc3)c(-c3ccc(F)cc3)[nH]2)cc1 (stereo not shown) [SB203580] | – | – | 1.3 | 3.3 | – |
| CC(=O)c1c(C)c2cnc(Nc3ccc(N4CCNCC4)cn3)nc2n(C2CCCC2)c1=O [Palbociclib (PD-0332991) HCl, Palbociclib] | – | – | 0.5 | 0.2 | – |
| C[C@]12O[C@H](C[C@]1(O)CO)n1c3ccccc3c3c4c(c5c6ccccc6n2c5c31)CNC4=O [Lestaurtinib] | – | – | 5 | – | ΔTm at 10 µM [2, 6]: 2 °C |
